{"source": "patent US6900021B1", "about": "“Microfluidic system and methods of use” (The University of Alberta, priority 1997, dated 2005)", "key": {"human lymphocytes [1]": {"test_system": "human lymphocytes", "experiment": "Calcium influx assay (stop flow, Fluo-3 AM fluorescence) with activator", "type": "cell-based", "settings": "single lymphocyte", "description": "Calcium influx is involved in major cell functions and responses of lymphocytes. In this assay, the calcium ion influx into the lymphocytes is induced by a calcium releasing agent, calcimycin (A23187, calcium ionophore). The rise in the concentration of free intracellular calcium ions results in an increase in fluorescent signal from cells pretreated with a fluorescing agent. The kinetic results of calcium influx may be studied with the stop flow method in the microfluidic device.\nThere are several steps in the study of the process of calcium influx. First, an activator, calcimycin (A23187 calcium ionophore) and the calcium ion complex must adsorb on the cell surface. Second, the complex has to diffuse through the cell membrane. Third, once inside the cytosol, dissociation between the A23187 and calcium ion has to take place. Finally, a fluorescing agent, FLUO-3 AM, complexes with the released calcium and produces emitted light that can be detected (fluorescence).\nFor measurement of calcium influx, a calcium-specific fluorophore, Fluo-3 AM (Molecular Proves), was preloaded into purified human lymphocytes as acetoxymethyl (AM) ester. […]\nA fluorescence microscope equipped with a 25× objective and a CCD camera was positioned over the detection zone, point “B” in FIG. 8, allowed the observation of cells as they passed the detection zone. […]"}, "canine erythrocytes": {"test_system": "canine erythrocytes", "experiment": "Lysis of canine erythrocytes by SDS in the microchip", "type": "cell-based, dog", "protocol": "A phosphate buffer, 40 mM each of NA2HPO4 and KH2PO4 (BDH analytical grade) was adjusted to pH 7.4 with either NaOH or HCl and used as an isotonic buffer for canine erythrocytes. (The plasma concentrations of […] in canine plasma are 94 and 6 mM. respectively. (8,9) Assuming a monoanion as the counterion gives as osmolarity of 200 mM, equal to that of the buffer prepared.) A hypotonic solvent, deionized water, was used to prepare yeast or E. coli cell suspensions. Sodium dodecyl sulfate (SDS, Serva, analytical grade) was prepared at 3 mM (0.1 wt %) in deionized water. Other chemicals were reagent grade and were used without further purification.\nRed blood cells of a healthy dog were obtained from Heritage Medical Research Centre (Edmonton, AB, Canada). Blood samples were collected using EDTA as the anticoagulant. These were centrifuged for separation into various blood components. After removal of the plasma and buffy coat, the erythrocytes were isolated as a cell pellet. A citrate-phosphate-dextrose (CPD) solution, (9), used to store human whole blood for enhancement of the poststorage viability of red cells, (10), was adapted for handling and storing the canine cells by addition of KCl and NaCl as well. The solutions contained 2.5 mM dextrose, 1.6 mM sodium citrate, 0.28 mM citric acid, 0.15 mM Na2HPO4, 94 mM NaCl, and 6.0 mM KCl. An erythrocyte suspension of 5% hematocrit was used. The cells were washed several times with the isotonic phosphate buffer to remove the storage buffer, using a Sanyo MSE MicroCentaur centrifuge.\nThe visual cell lysis experiment was performed in the COPI device (FIG. 5A). The B reservoir, which contained erythrocytes and the S reservoir, containing 3 mM SDS, were both at +150 V, while the SW reservoir was at ground. The potential at BW was floating.\nFor the cell lysis experiment using PMT detection, the PCRD2 device (FIG. 5B) was used. Cells were introduced into the S reservoir to which 400 V was applied, versus ground on the SW reservoir. A 3 mM SDS solution was introduced into the B reservoir. […]"}, "human lymphocytes [2]": {"test_system": "human lymphocytes", "experiment": "Calcium influx assay with lymphocyte inhibitor", "type": "cell-based", "protocol": "The microfluidic device and human lymphocytes were prepared as described in Example III.\nWith reference to FIG. 8, 100 μM of verapamil, an inhibitor, was introduced into channel #1; buffer was introduced into channel #2; leukocytes were introduced into channel #3; and calcium activator A23187 was introduced into channel #4.\nThe device was run as described in Example III above. Verapamil was introduced to the lymphocytes at point “A” intersection of the device (FIG. 8). The lymphocytes were incubated with verapamil for four minutes while transported through the main channel to the mixing point “B”."}, "P-selectin [3]": {"target": "T1, P-selectin (Homo sapiens, UniProt P16109)", "T1 sequence (P16109 42-830)": "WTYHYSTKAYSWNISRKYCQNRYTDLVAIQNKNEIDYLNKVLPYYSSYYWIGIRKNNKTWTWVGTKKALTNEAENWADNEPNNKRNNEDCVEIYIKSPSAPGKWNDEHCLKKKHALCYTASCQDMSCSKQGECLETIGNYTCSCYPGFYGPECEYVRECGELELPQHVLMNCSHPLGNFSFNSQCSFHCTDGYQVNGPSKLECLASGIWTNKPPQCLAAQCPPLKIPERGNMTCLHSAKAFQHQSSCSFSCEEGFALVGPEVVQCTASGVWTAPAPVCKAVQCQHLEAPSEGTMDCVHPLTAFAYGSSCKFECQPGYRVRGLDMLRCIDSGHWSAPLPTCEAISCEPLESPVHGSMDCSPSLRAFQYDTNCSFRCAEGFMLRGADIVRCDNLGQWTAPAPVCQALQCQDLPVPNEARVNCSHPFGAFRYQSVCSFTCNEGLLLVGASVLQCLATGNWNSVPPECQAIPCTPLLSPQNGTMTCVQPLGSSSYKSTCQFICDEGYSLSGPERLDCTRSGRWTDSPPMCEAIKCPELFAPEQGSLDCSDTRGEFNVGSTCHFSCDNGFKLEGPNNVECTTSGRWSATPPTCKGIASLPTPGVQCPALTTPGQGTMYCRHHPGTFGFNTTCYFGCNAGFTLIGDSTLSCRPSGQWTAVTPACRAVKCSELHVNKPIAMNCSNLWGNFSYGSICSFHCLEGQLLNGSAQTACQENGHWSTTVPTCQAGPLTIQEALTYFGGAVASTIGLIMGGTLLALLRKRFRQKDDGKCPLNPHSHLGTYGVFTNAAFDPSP", "experiment": "Cell rolling assay with undiluted human blood, P-selectin coated device", "type": "cell-based", "settings": "heparinated whole human blood; HCRIVc device", "quoted_text": "(§1) This device was previously coated either P-selectin or E-selectin as described above. 50 μl heparinated whole human blood (1 mg/ml heparin was added to the blood) was introduced into the first reservoir of the “Y” shape device shown in FIG. 12. The human blood was moved from the reservoir into the channel by a syringe pump at optimum flow rate for the device (see Table II) and the main flow channel, about 1-2 cm from intersection of “Y”, was observed under the microscope for 15 minutes.\n(§2) 50 μl of a mixture of inhibitor and heparinated blood was placed into the second reservoir and introduced into the channel for 3-10 minutes."}, "E-selectin [4]": {"target": "T2, E-selectin (Homo sapiens, UniProt P16581)", "T2 sequence (P16581 22-610)": "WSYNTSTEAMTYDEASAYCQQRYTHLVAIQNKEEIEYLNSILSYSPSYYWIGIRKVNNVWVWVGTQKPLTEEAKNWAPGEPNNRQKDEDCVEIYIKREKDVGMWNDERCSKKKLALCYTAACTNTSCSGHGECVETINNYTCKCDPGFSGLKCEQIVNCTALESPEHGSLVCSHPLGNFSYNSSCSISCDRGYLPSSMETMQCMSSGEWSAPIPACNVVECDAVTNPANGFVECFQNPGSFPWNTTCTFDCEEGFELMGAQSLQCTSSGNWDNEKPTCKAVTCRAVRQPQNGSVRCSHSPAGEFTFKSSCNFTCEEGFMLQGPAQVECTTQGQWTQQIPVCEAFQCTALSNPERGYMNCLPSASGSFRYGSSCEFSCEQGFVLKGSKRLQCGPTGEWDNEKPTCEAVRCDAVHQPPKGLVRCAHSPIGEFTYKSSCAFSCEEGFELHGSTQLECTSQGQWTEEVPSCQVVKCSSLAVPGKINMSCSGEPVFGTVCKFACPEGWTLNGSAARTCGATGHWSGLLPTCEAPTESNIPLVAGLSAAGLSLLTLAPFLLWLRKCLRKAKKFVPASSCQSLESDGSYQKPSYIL", "experiment": "Cell rolling assay with undiluted human blood, E-selectin coated device", "type": "cell-based", "settings": "heparinated whole human blood; HCRIVc device", "quoted_text": "as §1, §2"}, "E-selectin [5]": {"target": "T2, E-selectin", "experiment": "Cell rolling of neutrophils on E-selectin coated microchip", "type": "cell-based", "settings": "concentration not given"}, "P-selectin [6]": {"target": "T1, P-selectin", "experiment": "Cell rolling of neutrophils on P-selectin coated microchip", "type": "cell-based", "settings": "concentration not given", "protocol": "In preparation for cell rolling, the channels were coated with the desired selectin by methods similar to those set forth in Example VII.\nTo study cell rolling, two reservoirs leading to one channel were filled with cells. The contents of both the first and second reservoir (cells only) were drawn into the channel and cell rolling was observed.\nThe HCRIVa microchip was coated with 20 μg/ml P-selectin by methods similar to that described in Example VII and incubated for two hours. Isolated human neutrophils were moved through the rolling microchip with a flow rate of 10 μl/min. (approx. 800/cm shear rate=40 dynes/cm^2 shear force)."}}, "data": [{"compound": "CNc1ccc2oc(C[C@H]3O[C@@]4(CC[C@H]3C)O[C@H]([C@H](C)C(=O)c3ccc[nH]3)[C@H](C)C[C@H]4C)nc2c1C(=O)O", "note": "[A23187, calcimycin]", "values": [{"measurement": "time at the mixing point until lymphocyte showed fluorescence caused by calcium influx", "setting": "human lymphocytes [1]", "value": 4, "unit": "s"}]}, {"compound": "CCCCCCCCCCCCOS(=O)(=O)[O-].[Na+]", "note": "[SDS, Sodium dodecyl sulfate]", "values": [{"measurement": "scattered light signal from the cells", "setting": "canine erythrocytes; 3 mM SDS in deionized water, PMT 2.5 mm downstream of mixing point, PCRD2 device", "value": "signal dropped"}, {"measurement": "total time elapsed for lysis of the marked cells (three frames)", "setting": "canine erythrocytes; 3 mM SDS, COPI device, double-T region, 130 V/cm", "value": 0.3, "unit": "s"}, {"measurement": "lysis of erythrocytes (hemolysis) in a flowing stream", "setting": "canine erythrocytes; anionic detergent mixed with cell stream at an intersection", "value": "lysed cells sufficiently rapidly"}]}, {"compound": "COc1ccc(CCN(C)CCCC(C#N)(c2ccc(OC)c(OC)c2)C(C)C)cc1OC", "note": "(centres unmarked) [verapamil]", "values": [{"measurement": "activation in calcium flux", "setting": "human lymphocytes [2]; 100 μM, incubated four minutes, activator A23187", "value": "significant reduction"}, {"measurement": "fluorescence of inhibitor treated lymphocyte after activation with A23187", "setting": "human lymphocytes [2]; 100 μM, incubated four minutes, twenty individual lymphocytes", "value": "no fluorescence"}, {"measurement": "inhibition of calcium influx", "setting": "human lymphocytes [2]; lymphocytes incubated for 30 seconds in the mixing channel", "value": "no inhibition"}]}, {"compound": "Fucoidine", "values": [{"measurement": "inhibition of leukocyte rolling in whole blood in the presence of P-selectin", "setting": "P-selectin [3]", "value": "took a longer time to inhibit rolling"}, {"measurement": "inhibition of leukocyte rolling in whole blood in the presence of E-selectin", "setting": "E-selectin [4]", "value": "took a longer time to inhibit rolling"}, {"measurement": "inhibition of rolling of the neutrophils in the presence of E-selectin", "setting": "E-selectin [5]", "value": "took a longer time to inhibit rolling"}, {"measurement": "inhibition of rolling of the neutrophils in the presence of P-selectin", "setting": "P-selectin [6]", "value": "took a longer time to inhibit rolling"}]}]}
